Experiment: Electrode soaking test in electrolyte (coloration of electrolyte)
Assay type: physicochemical
Conditions: electrodes with 90 wt.% of TAQ soaked in 2 mL of 1 M LiTFSI in DOL/DME (1/1 vol.%), -20 °C to 70 °C, 24 hours; no coloration of electrolyte
From the text: The high-temperature performance of organic cathode materials for LIBs depends on the solubility of the active materials in organic electrolytes as dissolution leads to rapid capacity decay, dramatically reducing the cycling lifetime. On the other hand, the performance of LIBs at low temperatures is heavily dependent on the charge transport and transfer resistance, as well as the solid-state Li^+ diffusion resistance of the electrode. The solubility of TAQ electrodes and deeply lithiated TAQ (Lix-TAQ, 3<x<4) electrodes in a commercially available electrolyte (1 M LiTFSI in DOL/DME (1/1 vol.%)) under various temperatures was evaluated (FIGS. 24C and 31). […] The electrodes were soaked in 2 mL of electrolyte, and kept under various temperatures ranging from -20 °C to 70 °C for 24 hours. […] This insolubility stems from strong intermolecular hydrogen bonding between TAQ molecules and interlayer π- π stacking, which both persist even upon deep lithiation.

Nc1c(N)c(=O)c2[nH]c3c(=O)c(N)c(N)c(=O)c3[nH]c2c1=O [TAQ, bis-tetraaminobenzoquinone]
solubility of electrodes: complete insolubility
